# Data as given in patent US8859584B2, “TRPV1 antagonists” (AbbVie Inc., priority 2011, dated 2014).
# What was measured:
# human TRPV1 [1] = molecular target: T1, human TRPV1 (Homo sapiens, UniProt Q8NER1); test: Acid Activation Assay (pH 5.0, FLIPR intracellular Ca2+, recombinant HEK293 cells); format: cell-based; conditions: percentage of maximal pH 5.0-induced response remaining; HEK293 hTRPV1; max concentration 37.5 μM
# T1 construct: expressed in transfected cells
# Summary of the method: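 HEK293 cells stably expressing recombinant hTRPV1 were loaded with calcium dye for 90-120 min at 25° C and pre-treated with compound for 3 min before a pH 5.0 (DPBS/MES) challenge. Peak FLIPR fluorescence over baseline is given as percentage of the maximal pH 5.0-induced response.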
# rats = test: Sodium Iodoacetate-Induced Knee Joint Osteoarthritic Pain Model (hind limb grip force); format: in vivo; conditions: rat, 1 hour after administration, 20 days after sodium iodoacetate, read-out: % effect (% return to normalcy of hind limb grip force); for inhibition in vivo at 30 µmol/kg: 30 μmol/kg po single dose
# Procedure: (v) Sodium Iodoacetate-Induced Knee Joint Osteoarthritic Pain Model
# Unilateral knee joint osteoarthritis was induced in the rats by a single intra-articular (i.a.) injection of sodium iodoacetate (3 mg in 0.05 mL sterile isotonic saline) into the right knee joint cavity under light isoflurane anesthesia using a 26G needle. […] Pain behavioral assessment of hind limb grip force was conducted by recording the maximum compressive force exerted on the hind limb strain gauge setup, in a commercially available grip force measurement system (Columbus Instruments, Columbus, Ohio). The grip force data was converted to a maximum hindlimb cumulative compressive force (CFmax) (gram force)/kg body weight for each animal. The analgesic effects of test compounds were determined 20 days following the i.a. injection of sodium iodoacetate. The vehicle control group for each compound being tested was assigned 0% whereas the age matched naïve group was assigned as being 100% (normal). The % effect for each dose group was then expressed as % return to normalcy compared to the naïve group. Test compounds were administered orally in 10% ethanol/20% Tween 80/70% polyethylene glycol-400 vehicle at a volume of 2 mL/kg. The assessment of the analgesic effects of test compounds was made 1 hour following oral administration. The assessment of the analgesic effects of test compounds can be made following a single dose or following repeated administration wherein the frequency of dosing is 1 to 2 times daily. The duration of such repeated daily dosing may last for any time greater than one day. A typical duration of repeated daily dosing is about 5 days to about 12 days.
# human TRPV1 [2] = molecular target: T1, human TRPV1; test: Capsaicin Activation Assay (FLIPR intracellular Ca2+, recombinant HEK293 cells); format: cell-based; conditions: recombinant HEK293 cells expressing hTRPV1; 50 nM capsaicin; read-out: human TRPV1 capsaicin IC50
# T1 sequence (Q8NER1 whole entry): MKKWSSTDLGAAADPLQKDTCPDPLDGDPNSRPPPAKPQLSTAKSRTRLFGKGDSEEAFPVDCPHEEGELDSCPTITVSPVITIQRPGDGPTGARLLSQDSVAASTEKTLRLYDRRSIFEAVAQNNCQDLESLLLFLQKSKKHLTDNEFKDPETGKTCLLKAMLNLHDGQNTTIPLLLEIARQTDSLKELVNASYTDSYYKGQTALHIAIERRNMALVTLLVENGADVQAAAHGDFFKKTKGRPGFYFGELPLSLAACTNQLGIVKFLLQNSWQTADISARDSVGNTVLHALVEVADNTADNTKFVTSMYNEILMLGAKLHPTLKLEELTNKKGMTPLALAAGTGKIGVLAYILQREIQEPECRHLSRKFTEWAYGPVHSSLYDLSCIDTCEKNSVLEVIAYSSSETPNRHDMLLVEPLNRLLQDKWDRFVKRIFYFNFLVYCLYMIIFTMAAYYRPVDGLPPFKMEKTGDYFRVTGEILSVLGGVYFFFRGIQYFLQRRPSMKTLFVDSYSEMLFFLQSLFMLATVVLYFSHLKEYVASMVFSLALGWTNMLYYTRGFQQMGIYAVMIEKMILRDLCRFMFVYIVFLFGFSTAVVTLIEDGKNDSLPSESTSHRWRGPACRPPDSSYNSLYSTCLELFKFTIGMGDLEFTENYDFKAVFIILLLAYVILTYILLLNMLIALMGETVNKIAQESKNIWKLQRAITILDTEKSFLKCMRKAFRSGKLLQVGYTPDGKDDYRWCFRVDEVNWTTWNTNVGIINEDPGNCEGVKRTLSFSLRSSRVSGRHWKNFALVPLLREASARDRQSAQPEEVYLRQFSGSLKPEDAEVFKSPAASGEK
SMILES,human TRPV1 H+ (max % remain) (human TRPV1 [1]),IC50 (human TRPV1 [2]),inhibition in vivo at 17 µmol/kg (rats; 17 μmol/kg po single dose),inhibition in vivo at 30 µmol/kg (rats),inhibition in vivo at 100 µmol/kg (rats; 100 μmol/kg po single dose)
"CC1(C)C[C@@H](NC(=O)Nc2ccc(F)c3c2C[C@H](O)C3)c2cc(F)ccc2O1 [Example 146, 1-[(4R)-6-fluoro-2,2-dimethyl-3,4-dihydro-2H-chromen-4-yl]-3-[(2S)-7-fluoro-2-hydroxy-2,3-dihydro-1H-inden-4-yl]urea]",7%,2800 nM,,,
"CC1(C)C[C@@H](NC(=O)Nc2ccc(F)c3c2C[C@@H](O)C3)c2ccccc2O1 [Example 164, 1-[(4R)-2,2-dimethyl-3,4-dihydro-2H-chromen-4-yl]-3-[(2R)-7-fluoro-2-hydroxy-2,3-dihydro-1H-inden-4-yl]urea]",61%,1500 nM,,,
"O=C(Nc1ccc(F)c2c1C[C@H](O)C2)N[C@@H]1CC(CF)(CF)Oc2ccc(F)cc21 [Example 141, 1-[(4R)-6-fluoro-2,2-bis(fluoromethyl)-3,4-dihydro-2H-chromen-4-yl]-3-[(2S)-7-fluoro-2-hydroxy-2,3-dihydro-1H-inden-4-yl]urea]",5%,3900 nM,,,
"O=C(Nc1ccc(F)c2c1C[C@@H](O)C2)N[C@@H]1CC(CF)(CF)Oc2c(F)cccc21 [Example 170, 1-[(4R)-8-fluoro-2,2-bis(fluoromethyl)-3,4-dihydro-2H-chromen-4-yl]-3-[(2R)-7-fluoro-2-hydroxy-2,3-dihydro-1H-inden-4-yl]urea]",58%,3500 nM,,,
"CC1(C)C[C@@H](NC(=O)Nc2ccc(F)c3c2C[C@H](O)C3)c2ccc(F)cc2O1 [Example 138, 1-[(4R)-7-fluoro-2,2-dimethyl-3,4-dihydro-2H-chromen-4-yl]-3-[(2S)-7-fluoro-2-hydroxy-2,3-dihydro-1H-inden-4-yl]urea]",4%,820 nM,,,
"O=C(Nc1cccc2c1C[C@@H](O)C2)N[C@@H]1CC(CF)(CF)Oc2c(F)cccc21 [Example 87, 1-[(4R)-8-fluoro-2,2-bis(fluoromethyl)-3,4-dihydro-2H-chromen-4-yl]-3-[(2S)-2-hydroxy-2,3-dihydro-1H-inden-4-yl]urea]",50%,1200 nM,,,
"C[C@]1(C(F)F)C[C@@H](NC(=O)Nc2cccc3c2C[C@H](O)C3)c2ccccc2O1 [Example 127, 1-[(2R,4R)-2-(difluoromethyl)-2-methyl-3,4-dihydro-2H-chromen-4-yl]-3-[(2R)-2-hydroxy-2,3-dihydro-1H-inden-4-yl]urea]",62%,260 nM,,,
"O=C(Nc1cccc2c1C[C@H](O)C2)N[C@@H]1CC(CF)(CF)Oc2cc(F)ccc21 [Example 129, 1-[(4R)-7-fluoro-2,2-bis(fluoromethyl)-3,4-dihydro-2H-chromen-4-yl]-3-[(2R)-2-hydroxy-2,3-dihydro-1H-inden-4-yl]urea]",53%,360 nM,,,
"O=C(Nc1cccc2c1C[C@H](O)C2)N[C@@H]1CC(CF)(CF)Oc2cc(C(F)F)ccc21 [Example 130, 1-[(4R)-7-(difluoromethyl)-2,2-bis(fluoromethyl)-3,4-dihydro-2H-chromen-4-yl]-3-[(2R)-2-hydroxy-2,3-dihydro-1H-inden-4-yl]urea]",85%,34000 nM,,,
"CC(C)(C)c1ccc(Nc2ncnc3cc(-c4ncccc4C(F)(F)F)ccc23)cc1 [B, reference compound]",1%,55 nM,,,

# Further compounds by falling IC50 (human TRPV1 [2]), results first:
human TRPV1 H+ (max % remain) (human TRPV1 [1]),IC50 (human TRPV1 [2]),SMILES,inhibition in vivo at 17 µmol/kg (rats; 17 μmol/kg po single dose),inhibition in vivo at 30 µmol/kg (rats),inhibition in vivo at 100 µmol/kg (rats; 100 μmol/kg po single dose)
51%,200 nM,"CC1(C)C[C@@H](NC(=O)Nc2ccc(F)c3c2C[C@@H](O)C3)c2ccc(Cl)cc2O1 [Example 167, 1-[(4R)-7-chloro-2,2-dimethyl-3,4-dihydro-2H-chromen-4-yl]-3-[(2R)-7-fluoro-2-hydroxy-2,3-dihydro-1H-inden-4-yl]urea]",,,
33%,74 nM,"CC1(C)C[C@@H](NC(=O)Nc2cccc3c2C[C@@H](O)C3)c2ccc(F)cc2O1 [Example 32, 1-[(4R)-7-fluoro-2,2-dimethyl-3,4-dihydro-2H-chromen-4-yl]-3-[(2S)-2-hydroxy-2,3-dihydro-1H-inden-4-yl]urea]",,,
43%,65 nM,"CC1(C)C[C@@H](NC(=O)Nc2ccc(F)c3c2C[C@@H](O)C3)c2ccc(F)c(Cl)c2O1 [Example 166, 1-[(4R)-8-chloro-7-fluoro-2,2-dimethyl-3,4-dihydro-2H-chromen-4-yl]-3-[(2R)-7-fluoro-2-hydroxy-2,3-dihydro-1H-inden-4-yl]urea]",,,
40%,61 nM,"CC1(C)C[C@@H](NC(=O)Nc2ccc(F)c3c2C[C@@H](O)C3)c2cccc(C(F)(F)F)c2O1 [Example 156, 1-[(4R)-2,2-dimethyl-8-(trifluoromethyl)-3,4-dihydro-2H-chromen-4-yl]-3-[(2R)-7-fluoro-2-hydroxy-2,3-dihydro-1H-inden-4-yl]urea]",,,
63%,60 nM,"C[C@]1(CF)C[C@@H](NC(=O)Nc2cccc3c2C[C@H](O)C3)c2ccc(Cl)cc2O1 [Example 15, 1-[(2R,4R)-7-chloro-2-(fluoromethyl)-2-methyl-3,4-dihydro-2H-chromen-4-yl]-3-[(2R)-2-hydroxy-2,3-dihydro-1H-inden-4-yl]urea]",,,
48%,44 nM,"O=C(Nc1cccc2c1C[C@H](O)C2)N[C@@H]1CCOc2cc(OC(F)(F)F)ccc21 [Example 14, 1-[(2R)-2-hydroxy-2,3-dihydro-1H-inden-4-yl]-3-[(4R)-7-(trifluoromethoxy)-3,4-dihydro-2H-chromen-4-yl]urea]",,54%,
30%,41 nM,"O=C(Nc1cccc2c1C[C@H](O)C2)N[C@@H]1CC(CF)(CF)Oc2cc(OC(F)(F)F)ccc21 [Example 31, 1-[(4R)-2,2-bis(fluoromethyl)-7-(trifluoromethoxy)-3,4-dihydro-2H-chromen-4-yl]-3-[(2R)-2-hydroxy-2,3-dihydro-1H-inden-4-yl]urea]",,,
76%,32 nM,"CC1(C)C[C@@H](NC(=O)Nc2cccc3c2C[C@H](O)C3)c2ccc(F)cc2O1 [Example 5, 1-[(4R)-7-fluoro-2,2-dimethyl-3,4-dihydro-2H-chromen-4-yl]-3-[(2R)-2-hydroxy-2,3-dihydro-1H-inden-4-yl]urea]",,,57%
62%,28 nM,"CC1(C)C[C@@H](NC(=O)Nc2cccc3c2C[C@H](O)C3)c2ccc(Cl)cc2O1 [Example 13, 1-[(4R)-7-chloro-2,2-dimethyl-3,4-dihydro-2H-chromen-4-yl]-3-[(2R)-2-hydroxy-2,3-dihydro-1H-inden-4-yl]urea]",,52%,
74%,27 nM,"CC1(C)C[C@@H](NC(=O)Nc2cccc3c2C[C@H](O)C3)c2ccc(Cl)c(F)c2O1 [Example 10, 1-[(4R)-7-chloro-8-fluoro-2,2-dimethyl-3,4-dihydro-2H-chromen-4-yl]-3-[(2R)-2-hydroxy-2,3-dihydro-1H-inden-4-yl]urea]",49%,,
58%,26 nM,"O=C(Nc1cccc2c1C[C@H](O)C2)N[C@@H]1CCOc2c1cccc2C(F)(F)F [Example 18, 1-[(2R)-2-hydroxy-2,3-dihydro-1H-inden-4-yl]-3-[(4R)-8-(trifluoromethyl)-3,4-dihydro-2H-chromen-4-yl]urea]",,,
12%,24 nM,"CC1(C)C[C@@H](NC(=O)Nc2cccc3c2C[C@@H](O)C3)c2ccc(Cl)cc2O1 [Example 85, 1-[(4R)-7-chloro-2,2-dimethyl-3,4-dihydro-2H-chromen-4-yl]-3-[(2S)-2-hydroxy-2,3-dihydro-1H-inden-4-yl]urea]",,,
48%,18 nM,"C[C@]1(CF)C[C@@H](NC(=O)Nc2cccc3c2C[C@H](O)C3)c2ccc(C(F)(F)F)cc2O1 [Example 43, 1-[(2R,4R)-2-(fluoromethyl)-2-methyl-7-(trifluoromethyl)-3,4-dihydro-2H-chromen-4-yl]-3-[(2R)-2-hydroxy-2,3-dihydro-1H-inden-4-yl]urea]",,38%,
1%,12 nM,"CC1(C)C[C@@H](NC(=O)Nc2cccc3c2C[C@@H](O)C3)c2ccc(C(F)(F)F)cc2O1 [Example 77, 1-[(4R)-2,2-dimethyl-7-(trifluoromethyl)-3,4-dihydro-2H-chromen-4-yl]-3-[(2S)-2-hydroxy-2,3-dihydro-1H-inden-4-yl]urea]",,,
